{"source": "patent US8017785B2", "about": "“Salt forms of (2S)-(4E)-N-methyl-5-[3-(5-isopropoxypyridin)y1]-4-penten 2-amine” (AstraZeneca AB, priority 2006, dated 2011)", "target": "CNS nicotinic receptors", "experiment": "Determination of binding to relevant receptor sites", "conditions": "free base used to prepare the salts", "procedure": "Receptor binding constants provide a measure of the ability of the compound to bind to half of the relevant receptor sites of certain brain cells of the patient. See, Cheng, et al., Biochem. Pharmacol. 22:3099 (1973). The (2S)-(4E)-N-methyl-5-[3-(5-isopropoxypyridin)yl]-4-penten-2-amine compound used to prepare the salts has extremely high affinity for the relevant receptors, with a binding affinity in the low nM range.\nBinding of the compounds to relevant receptor sites was determined in accordance with the techniques described in U.S. Pat. No. 6,953,855 to Mazurov et al Inhibition constants (Ki values), reported in nM, were calculated from the IC50 values using the method of Cheng et al., Biochem, Pharmacol. 22:3099 (1973)."}
{"molecule": "CN[C@@H](C)C/C=C/c1cncc(OC(C)C)c1", "note": "[(2S)-(4E)-N-methyl-5-[3-(5-isopropoxypyridin)yl]-4-penten-2-amine]", "values": [{"measurement": "binding affinity (receptor binding constant, Ki)", "value": "low nM range"}]}
